The values below come from patent publication US20250213546A1, “TREATING CANCER WITH SMALL MOLECULES THAT INHIBIT ACSS-2” (DREXEL UNIVERSITY, priority 2022, published 2025).

As usually defined, the koff is the first-order rate constant of dissociation. Usually kon stands for the rate constant with which the complex forms. Read a low kon as slower complex formation. Broadly, the efflux ratio is a quotient of directional permeabilities that is used to spot active efflux.

SMILES strings stand for the structures. Read-outs that look alike come from different tables or passages of the source.

The target of data set [1] is hACSS-2 (Homo sapiens (Human), UniProt Q9NR19). Kind of data set: Surface plasmon resonance (SPR) binding to immobilized hACSS-2. The method, then: SPR characterization. All binding assays were performed on a ProteOn XPR36 SPR Protein Interaction Array System (Bio-Rad Laboratories, Hercules, CA, USA). The instrument temperature was set at 25° C. for all kinetic analyses. ProteOn GLH sensor chips were preconditioned with two short pulses each (10 s) of 50 mM NaOH, 100 mM HCl, and 0.5% sodium dodecyl […]. Then the system was equilibrated with running buffer (1×PBS pH 7.4, 3% DMSO and 0.005% polysorbate 20). The surface of a GLH sensor chip was activated with a 1:100 dilution of a 1:1 mixture of 1-ethyl-3-(3-dimethylaminopropyl) carbodiimide hydrochloride (0.2 M) and sulfo-N-hydroxysuccinimide (0.05 M). […] Then, after unreacted protein had been washed out, excess active ester groups on the sensor surface were capped by a 5 min injection of 1M ethanolamine HCl (pH 8.0) at a flow rate of 5 μL/min. A reference surface was similarly created by immobilizing a nonspecific protein (IgG b12 anti-HIV-1 gp120; was obtained through the NIH AIDS Reagent Program, Division of AIDS, NIAID, NIH: Anti-HIV-1 gp120 Monoclonal (IgG1 b12) from Dr. Dennis Burton and Carlos Barbas) and was used as a background to correct nonspecific binding. Serial dilutions of hACSS-2 inhibitors were then prepared in the running buffer and injected at a flow rate of 100 μL/min, for a 50 s association phase, followed by up to a 5 min dissociation phase using the “one-shot kinetics” capability of the ProteOn instrument. Data were analyzed using the ProteOn Manager Software version 3.0 (Bio-Rad). The responses from the reference flow cell were subtracted to account for the nonspecific binding and injection artifacts. Experimental data were fitted to a simple 1:1 binding model. Experiments were performed in triplicate to detect kinetic and equilibrium dissociation constants (KD).
Overproduction of hACSS-2 was achieved using a prokaryotic expression system. […] The bacterial expressions were then spun down, the supernatant discarded, and the pellets resuspended. After the cells were lysed via sonication, the sample was subjected to ultracentrifugation, and the clarified lysate was applied to a Talon cobalt resin affinity column (Clonetech Laboratories, Mountain View, CA). The bound protein was eluted from the column using 1×PBS pH 7.4 with 0.3 M imidazole, then dialyzed overnight into 20 mM Tris-HCl pH 8.0, concentrated to 10 mg/mL, aliquoted, and stored at −80° C.
On the technique in general: In SPR one partner is held on a chip, and binding of the other changes the refractive index at the surface.

Data set [2] can be described thus: Human liver microsome stability. The data set is classed as in vitro ADME. To be noted: 60 min, given as fraction. The method, then:
(§1) Metabolic Stability and Plasma Stability. Test compound Working solution: 5 μL of compound stock solution (10 mM in dimethyl sulfoxide (DMSO)) were diluted with 495 μL of DMSO (Working solution concentration: 100 μM, 100% DMSO). Propantheline bromide Working solution: 5 μL of Propantheline bromide stock solution (10 mM in H2O) were diluted with 495 μL of H2O (Working solution concentration: 100 μM, 100% H2O)

A short description of data set [3]: Human plasma stability. The format is in vitro ADME. Particulars: both sexes, 37° C., up to 120 min, read-out: Human Plasma Stability T1/2. As for the experimental part: as §1
Human plasma from 3 males and 3 females was obtained. Heparin was used as the anticoagulant. The pooled frozen plasma was thawed in a water bath at 37° C. prior to experiment. Plasma was centrifuged at 4000 rpm for 5 min and the clots were removed if any. Using an Apricot automation workstation, 98 μL/well of blank plasma were added to all 96-well reaction plates. (Blank, T0, T10, T30, T60 and T120). The appointed incubation time points are T0 (0 min), Tn (n=0, 10, 30, 60, 120 min). An Apricot automation workstation was used to add 2 μL/well of working solution (100 μM) to all reaction plates except Blank. (T0, T10, T30, T60 and T120). All reaction plates containing mixtures of compound and plasma were incubated at 37° C. in water bath. The reaction plates were incubated at 37° C., and timer was started. At the end of incubation, 500 μL of stop solution was added and mixed (200 ng/mL tolbutamide and 200 ng/ml labetalol in ACN) to precipitate protein. Each plate was sealed and shaken for 20 minutes. After shaking, each plate was centrifuged at 4000 rpm and 4° C. for 20 minutes. After centrifugation, an Apricot automation workstation was used to transfer 150 μL of supernatant from each reaction plate to its corresponding bioanaylsis plate. Each bioanalysis plate was sealed and shaken for 10 minutes prior to LC-MS/MS analysis. The % remaining of test compound after incubation in plasma was calculated using following equation: Remaining=100×(PAR at appointed incubation time/PAR at T0 time) where PAR is the peak area ratio of analyte versus internal standard (IS).

The test system of data set [4] is MDR1-MDCK I cells. Kind of data set: in vitro. To be noted: dog, MDCK-MDR1, 1.5 h, 2 µM, pH 7.4. As for the experimental part: (§2) MDCKI MDR1 cell permeability assessment was performed to mimic the blood brain barrier. MDR1-MDCK I cells were seeded onto […] (PET) in 96-well Corning insert systems at 2.5×10^5 cells/mL until to 4-7 days for confluent cell monolayer formation. The transport buffer in the study was HBSS with 10.0 mM HEPES at pH 7.40+0.05. Test compounds were tested at 2.00 μM bi-directionally in duplicate. […] Final DMSO concentration was adjusted to less than 1%. The plate was incubated for 1.5 hours in CO2 incubator at 37±1° C., with 5% CO2 at saturated humidity without shaking. All samples after mixed with acetonitrile containing internal standard were centrifuged at 3220×g for 10 min. For all samples, 150 μL supernatant solution was diluted with 150 μL ultra-pure water for LC-MS/MS analysis. In addition, the efflux ratio of each compound was also determined. Test and reference compounds were quantified by LC-MS/MS analysis based on the peak area ratio of analyte/IS. After transport assay, Lucifer yellow rejection assay are applied to determine the cell monolayer integrity. Buffers are removed from both apical and basolateral chambers, followed by the addition of 75 μL of 100 μM lucifer yellow in transport buffer and 250 μL transport buffer in apical and basolateral chambers, respectively. […] After 30 minutes incubation, 20 μL of lucifer yellow samples are taken from the apical sides, followed by the addition of 60 μL of Transport Buffer. And then 80 μL of lucifer yellow samples are taken from the basolateral sides.
(§3) The apparent permeability coefficient Papp (cm/s) was calculated using the equation: Papp=(dCr/dt)×Vr/(A×C0) where dCr/dt is the cumulative concentration of compound in the receiver chamber as a function of time (μM/s); Vr is the solution volume in the receiver chamber (0.075 mL on the apical side, 0.25 mL on the basolateral side); A is the surface area for the transport, i.e. 0.0804 cm^2 for the area of the monolayer; CO is the initial concentration in the donor chamber (μM). […] Percent of lucifer yellow in basolateral well is calculated using the equation: Where RFUApical and RFUBasolateral are the relative fluorescence unit values of lucifer yellow in the apical and basolateral wells, respectively; VApical and VBasolateral are the volume of apical and basolateral wells (0.075 mL and 0.25 mL), respectively. The % Lucifer Yellow should be less than 1.0.

Data set [5] concerns MDR1. Kind of data set: in vitro. To be noted: dog. The method, then: as §2, §3
In data set [6] the test system is MDA-MB-231BR cells. Kind of data set: Clonogenicity assay. The format is cell-based. Particulars: after treatment. The method, then:
Triple-negative brain trophic cells MDA-MB-231BR (Center for Cancer Research, National Cancer Institute) were cultured with 10% fetal bovine serum (FBS), 5% 10,000 Units/mL Penicillin-10,000 μg/mL Streptomycin, and 5% 200 mM L-Glutamine. […] For crystal violet staining, 5×10^4 cells were plated in to a 6-well plate and subjected to the treatments as described in the individual figures and then stained with 0.5% crystal violet prepared in a 1:1 methanol-water solution followed by dH2O washes.
To assess clonogenic survival, cells were cultured and detached in their respective growth media, then counted using a hemocytometer. 1,000 cells were plated in triplicate in 6-well plates in their respective growth media and allowed to form colonies. Cells were grown for 14 days. Upon conclusion of growth period, colonies were stained with crystal violet. Colony numbers were quantified based on number of colonies with >40 cells. For clonogenic survival based on drug exposure, 100,000 cells were plated in a 6-well plate, then 24 hours later treated with noted concentration of drug for 48 hours. After 48 hours, cells in each concentration condition were lifted, counted, and plated per the described clonogenic survival protocol and allowed to grow for noted length of time in noted growth media. […] Colony numbers were quantified based on number of colonies with >40 cells.

The test system of data set [7] is 4T1-BR. Kind of data set: Ex vivo BCBM mouse brain slice model, 4T1-BR. The format is cell-based. To be noted: bioluminescence. As for the experimental part: (§4) Ex vivo brain slice model. Organotypic hippocampal cultures were prepared as described previously (PMID: 34633392). Briefly, adult mice (6-8 week) or mice after 12 days following intracranial injection were decapitated and their brains rapidly removed into ice-cold (4° C.) sucrose-aCSF composed of the following (in mM): 280 sucrose, 5 KCl, 2 MgCl2, 1 CaCl2, 20 glucose, 10 HEPES, 5 Na+-ascorbate, 3 thiourea, 2 Na+-pyruvate; pH=7.3. Brains were blocked with a sharp scalpel and sliced into 250 μm sections using a McIlwain-type tissue chopper (Vibrotome inc). Four to six slices were placed onto each 0.4 μm Millicell tissue culture insert (Millipore) in six-well plates, 1 ml of medium containing the following: Neurobasal medium A (Gibco), 2% Gem21-Neuroplex supplement (Gemini), 1% N2 supplement (Gibco), 1% glutamine (Invitrogen), 0.5% glucose, 10 U/ml penicillin, and 100 μg/ml streptomycin (Invitrogen), placed underneath each insert. One-third to one half of the media was changed every 2 d. Tumor growth was monitored via bioluminescence imaging on the IVIS 200 system (Perkin Elmer) and results analyzed using Living Image software (Caliper Life Sciences, Waltham, MA, USA). […] Tissues were incubated at 37° C., 5% CO2 for 4 hours and absorbance at 490 nm was measured with Tecan Spark Microplate reader.

For data set [8], the system named is MDA-MB-231-BR. Kind of data set: Ex vivo BCBM mouse brain slice model, MDA-MB-231-BR. The data set is classed as cell-based. To be noted: bioluminescence. As for the experimental part: as §4
Data set [9] has as its system FASN. Kind of data set: FASN expression (immunoblot). The data set is classed as cell-based, human. To be noted: BCBM cells. As for the experimental part: ACSS-2 provides Acetyl-CoA for numerous metabolic processes vital for cancer proliferation. The human fatty acid synthase (FASN) is essential for BCBM growth and survival (FIG. 13A), and hACSS-2 does regulate FASN protein expression levels BCBM cells (FIG. 13B).
ACSS2 inhibitors on levels of lipid droplet storage. Briefly, cell lysates from 1-5×10^6 cells were prepared in radioimmune precipitation assay buffer (150 mM NaCl, 1% NP40, 0.5% DOC, 50 mM Tris HCL at pH 8, 0.1% SDS, 10% glycerol, 5 mM EDTA, 20 mM NaF, and 1 mM Na3 VO4) supplemented with 1 μg/ml each of pepstatin, leupeptin, aprotinin, and 200 μg/ml PMSF. Lysates were cleared by centrifugation at 16,000×g for 15 minutes at 4° C. and analyzed by SDS-PAGE and autoradiography with chemiluminescence. Proteins were analyzed by immunoblotting using primary antibodies against Fatty Acid Synthase (FASN) (Cell Signaling) and beta-Tubulin (Cell Signaling) (FIG. 16A).
(In general: In western blotting, separated proteins are transferred to a membrane and probed.)

hACSS-2, sequence (Q9NR19 whole entry): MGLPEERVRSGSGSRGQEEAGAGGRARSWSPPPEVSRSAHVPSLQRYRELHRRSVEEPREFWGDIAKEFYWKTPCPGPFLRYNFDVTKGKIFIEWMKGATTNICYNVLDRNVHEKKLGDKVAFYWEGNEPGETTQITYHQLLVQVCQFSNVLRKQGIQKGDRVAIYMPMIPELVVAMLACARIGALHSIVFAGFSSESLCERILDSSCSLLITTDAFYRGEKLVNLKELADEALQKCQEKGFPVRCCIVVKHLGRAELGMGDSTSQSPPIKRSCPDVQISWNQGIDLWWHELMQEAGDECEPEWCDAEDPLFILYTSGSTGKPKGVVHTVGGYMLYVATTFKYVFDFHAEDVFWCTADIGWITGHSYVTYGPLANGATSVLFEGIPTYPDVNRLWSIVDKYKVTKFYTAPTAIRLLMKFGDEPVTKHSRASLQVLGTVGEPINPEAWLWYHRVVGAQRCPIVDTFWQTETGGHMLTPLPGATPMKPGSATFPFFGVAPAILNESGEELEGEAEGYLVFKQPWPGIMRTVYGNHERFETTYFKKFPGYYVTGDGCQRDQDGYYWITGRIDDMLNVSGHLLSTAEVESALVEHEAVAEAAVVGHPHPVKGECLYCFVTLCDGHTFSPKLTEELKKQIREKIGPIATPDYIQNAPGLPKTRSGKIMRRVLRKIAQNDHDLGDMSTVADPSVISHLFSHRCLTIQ

In [1] (1:1 binding model, mean, n = 3), `N[C@H](C(=O)N1CCCC(c2ccccc2)(c2ccccc2)C1)C1CC1` [AD-8007] came in with a koff of 0.547 s⁻¹. Further, the kon in [1] (1:1 binding model, mean, n = 3) worked out at 4790 M⁻¹ s⁻¹. Further, the Kd in data set [1] (Langmuir isotherm equilibrium fit, mean, n = 3, read-out: KD [μM] equilibrium) was determined as 117 µM; in data set [1] (global fit, mean, n = 3, read-out: KD [μM] kinetic/global) it was 149 µM; in data set [1] (read-out: Affinity (KD in μM) for hACSS-2 mean ± SD (n = 3), SPR, one site binding model isotherm, triplicate) it was 89 ± 20 µM. In [2], the “Human Liver Microsome Stability Remaining(T = 60 min)” value stood at 0.7723. For the same compound, in data set [2] (NCF), the “Human Liver Microsome Stability Remaining(NCF = 60 min)” value amounted to 0.9563. Besides, the half-life at 2 µM in data set [3] is greater than 4.82 h. In addition, the “Note (efflux / BBB assessment)” value in data set [4] is reported as “AD 8007 has a low efflux ratio”. For the same compound, the efflux ratio at 1.5 h, 2 µM in data set [5] (MDCK-MDR1, pH 7.4) came to 8.96. Further, the recovery at 1.5 h, 2 μM amounted to 81.3% in data set [5] (MDCK-MDR1, pH 7.4, Mean % Solution Recovery A to B) and 97% in [5] (MDCK-MDR1, pH 7.4, Mean % Solution Recovery B to A).
Turning to `O=C(CCN1CCCC(c2ccccc2)(c2ccccc2)C1)NC1CC1` [AD-2441], the “reproductive cell death (clonogenicity)” value in data set [6] is listed as “confirmed”. The “BCBM growth, 4T1-BR” value in data set [7] is given as “suppress BCBM growth”. For the same compound, the “BCBM growth, MDA-MB-231-BR” value in data set [8] is “suppress BCBM growth”. Besides, the FASN expression levels result in data set [9] is reported as “downregulates FASN expression levels”.
